Measured values: US6743802B2, “Alkyne-aryl phosphodiesterase-4 inhibitors” (Merck Frosst Canada & Co., priority 2001, dated 2004)

Tested on: TNF-α and LTB4
Experiment: LPS and FMLP-induced TNF-α and LTB4 assays in human whole blood
Type: cell-based
Settings: LPS 1 μg/mL 24 h, then LPS and fMLP 1 μM challenge, marker (TNF-α or LTB4) not specified
Experimental: Whole blood provides a protein and cell-rich milieu appropriate for the study of biochemical efficacy of anti-inflammatory compounds such as PDE4-selective inhibitors. […] Upon stimulation with LPS, activated monocytes express and secrete TNF-α up to 8 hours and plasma levels remain stable for 24 hours. Published studies have shown that inhibition of TNF-α by increasing intracellular cAMP via PDE4 inhibition and/or enhanced adenylyl cyclase activity occurs at the transcriptional level. […] As there is little LTB4 produced during a 24 hour LPS stimulation of whole blood, an additional LPS stimulation followed by fMLP challenge of human whole blood is necessary for LTB4 synthesis by activated neutrophils. Thus, by using the same blood sample, it is possible to evaluate the potency of a compound on two surrogate markers of PDE4 activity in the whole blood by the following procedure.
Fresh blood was collected in heparinized tubes by venipuncture from healthy human volunteers (male and female). These subjects had no apparent inflammatory conditions and had not taken any NSAIDs for at least 4 days prior to blood collection. 500 μL aliquots of blood were pre-incubated with either 2 μL of vehicle (DMSO) or 2 μL of test compound at varying concentrations for 15 minutes at 37° C. […]

- IC50: 10 to 2400 nM
Structure (SMILES): CC(C)NC(=O)c1cn(-c2cccc(C#Cc3cccc(C(C)(C)O)n3)c2)c2ncccc2c1=O [Example 28, N-Isopropyl-1-{3-[6-(1-hydroxy-1-methylethyl)-2-pyridinylethynyl]phenyl}-1,4-dihydro [1,8]naphthyridin-4-one-3-carboxamide]
